# In patent publication US9980943B2, “Methods of treating muscular dystrophy” (BOARD OF REGENTS OF THE NEVADA SYSTEM OF HIGHER EDUCATION, …, priority 2013, dated 2018):
# Like-named read-outs stand apart in the source and are kept apart here.
# How the values were obtained:
# [1] = system: β-galactosidase in CMV-LacZ C2C12 myoblasts; assay: CMV-LacZ secondary screen in C2C12 myoblasts (β-Gal stabilizing assay); type: cell-based, mouse; conditions: SU9516 analogs, C2C12 CMV-LacZ, N=2
# Text: In order to determine compounds that acted to stabilize β-gal in myogenic cells, a CMV-LacZ C2C12 cell line was used in a secondary screen. The EGFP gene from the pEGFP (Clontech) vector was replaced by LACZ PCR product with digests of the vector/PCR product performed using EcoRI (NEB) and NotI (NEB) and ligated using T4 DNA Ligase (NEB) following standard procedures to produce the CMV-LACZ vector. The LACZ gene was generated by PCR from the pBK-RSV (Stratagene) vector using primers LACZ EcoRI F- and LACZ NotI R-. The CMV-LACZ vector was then digested with AfIII (NEB) to linearize the construct, which was then transfected in C2C12 myoblasts using Lipofectamine 2000 (Invitrogen) following the manufacturer's instructions. […] Clonal lines were selected and screened for βgal levels using the myoblast FDG assay.
# The assays were used the original 96-well format and new dose-response curves for myoblasts (N=3-6 replicates for each data point), myotubes (N=3-6 replicates for data point), and CMV-LacZ secondary assay (N=2 replicates for each data point) using concentrations of 0.5 μM, 1 μM, 5 μM, 10 μM, 20 μM, and 40 μM (Tables 9-16).
# [2] = system: β-galactosidase in CMV-LacZ C2C12 myotubes; assay: CMV-LacZ secondary screen in C2C12 myotubes (β-Gal stabilizing assay); type: cell-based, mouse; conditions: SU9516 analogs, C2C12 CMV-LacZ, N=2
# How it was run: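 CMV-LacZ C2C12 line (clonal, FDG-screened); myoblasts/myotubes dosed 0.5–40 μM (0.5, 1, 5, 10, 20, 40 μM); n=2 per point; β-gal stabilization read-out.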
# [3] = system: α7 integrin (LacZ reporter in α7+/LacZ myotubes); assay: Myotube α7 integrin FDG assay (Burkin assay in myotubes, 96-well); type: cell-based, mouse; conditions: myotubes; for MT FOLD INCREASE: maximum response; for EC50: nonlinear regression of dose-response curves, read-out: EC50 α7+/LacZ MT
# [4] = system: α7 integrin (LacZ reporter in α7LacZ+/− myoblasts); assay: qHTS of the LOPAC library and MLSMR (online screen, α7LacZ+/− myoblasts); conditions: for Online Screen Fold-change / Online Screen Score: MLSMR qHTS, myoblasts
smiles,measurement,setting,value
Cc1cc(C)c(/C=C2\C(=O)Nc3ccccc32)[nH]1 [NCGC00094381-04],"CMV-LACZ in Myoblasts, value relative to DMSO",[1]; 0.5 uM,1.0763
same,"CMV-LACZ in Myoblasts, value relative to DMSO",[1]; 5 uM,1.1366
same,"CMV-LACZ in Myoblasts, value relative to DMSO",[1]; 10 uM,0.9770
same,"CMV-LACZ in Myoblasts, value relative to DMSO",[1]; 20 uM,0.9330
same,"CMV-LACZ in Myoblasts, value relative to DMSO",[1]; 40 uM,0.9697
same,"CMV-LACZ in Myotubes, value relative to DMSO",[2]; 0.5 uM,1.0845
same,"CMV-LACZ in Myotubes, value relative to DMSO",[2]; 1 uM,1.4927
same,"CMV-LACZ in Myotubes, value relative to DMSO",[2]; 5 uM,1.2849
same,"CMV-LACZ in Myotubes, value relative to DMSO",[2]; 10 uM,1.1010
same,"CMV-LACZ in Myotubes, value relative to DMSO",[2]; 20 uM,3.8710
same,"CMV-LACZ in Myotubes, value relative to DMSO",[2]; 40 uM,8.1220
CC1CCCCN1c1ncnc(N)c1[N+](=O)[O-] (centres unmarked) [MLS000683234],MT FOLD INCREASE,[3],1.7 fold
same,EC50,[3],27 µM
same,Online Screen Fold-change,[4],2.6
same,Online Screen Score,[4],46
C[C@H]1CNC(=O)c2c(C(=O)Nc3ccc(CNC(=O)OC(C)(C)C)cc3)ncn21 [MLS003126425],MT FOLD INCREASE,[3],2.0 fold
same,EC50,[3],7 µM
same,Online Screen Fold-change,[4],1.9
same,Online Screen Score,[4],43
O=C(Nc1ccc(N2CCN(C(=O)c3ccccc3F)CC2)cc1)c1cncc(Br)c1 [MLS001060533],MT FOLD INCREASE,[3],1.5 fold
same,EC50,[3],4.7 µM
same,Online Screen Fold-change,[4],1.9
same,Online Screen Score,[4],42
CN(C)c1ccnc2sc(C(N)=O)c(N)c12 [MLS000532969],EC50,[3],2.2 µM
same,Online Screen Score,[4],44
COc1cccc(N2C(=O)CC(N3CCc4ccccc4C3)C2=O)c1 (centres unmarked) [Compound 176],activation at 0.307 µM,"[4]; Mus musculus, Myoblast, 48 h, read-out: Activity at 0.307 uM [%] **",-22.1%
same,activation at 1.53 µM,"[4]; Mus musculus, Myoblast, 48 h, read-out: Activity at 1.530 uM [%] **",-16.9%
same,activation at 7.66 µM,"[4]; Mus musculus, Myoblast, 48 h, read-out: Activity at 7.660 uM [%] **",5.26%
same,activation at 38.3 µM,"[4]; Mus musculus, Myoblast, 48 h, read-out: Activity at 38.30uM [%] **",95.9%
same,Emax,"[4]; Mus musculus, Myoblast, 48 h, read-out: Fit Infinite Activity [%]",96.1%
same,EC50,"[4]; Mus musculus, Myoblast, read-out: Fit LogAC50 (converted)",10 µM
same,Emax,"[4]; Mus musculus, Myoblast, read-out: Max Response [%]",95.9%
